# According to PubChem BioAssay AID248 (DTP/NCI, 2004):
# Several values for one entry are separate records, joined by “and”; a condition that tells them apart may be missing. Identical values can stand only once. Toxic doses and inconclusive results are not listed.
# Test system: L1210 leukemia ip in BDF1 mice, survival T/C
# Assay: NCI In Vivo Anticancer Drug Screen. Data for tumor model L1210 Leukemia (intraperitoneal) in B6D2F1 (BDF1) mice
# Conditions: endpoint: mean survival time, higher = longer survival
# How it was run: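 Value reflects the ratio of survival in compound-treated mice to survival in vehicle-treated controls, with both groups carrying the same transplanted tumor.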
# [1] = dose: 50.0 mg/kg/injection, schedule: Q01DX001 (ip), vehicle: saline
# [2] = dose: 100.0 mg/kg/injection, schedule: Q01DX001 (ip), vehicle: saline
# [3] = dose: 200.0 mg/kg/injection, schedule: Q01DX001 (ip), vehicle: saline
# [4] = dose: 400.0 mg/kg/injection, schedule: Q01DX001 (ip), vehicle: saline
# [5] = dose: 100.0 mg/kg/injection, schedule: Q04DX003 (ip), vehicle: saline
# [6] = dose: 200.0 mg/kg/injection, schedule: Q04DX003 (ip), vehicle: saline
# [7] = dose: 400.0 mg/kg/injection, schedule: Q04DX003 (ip), vehicle: saline
# [8] = dose: 50.0 mg/kg/injection, schedule: Q01DX009 (ip), vehicle: Klucel (hydroxypropylcellulose) (HPC)
# [9] = dose: 100.0 mg/kg/injection, schedule: Q01DX009 (ip), vehicle: Klucel (hydroxypropylcellulose) (HPC)
# [10] = dose: 200.0 mg/kg/injection, schedule: Q01DX009 (ip), vehicle: Klucel (hydroxypropylcellulose) (HPC)
# [11] = dose: 100.0 mg/kg/injection, schedule: Q01DX001 (ip), vehicle: saline with Tween-80
# [12] = dose: 200.0 mg/kg/injection, schedule: Q01DX001 (ip), vehicle: saline with Tween-80
# [13] = dose: 100.0 mg/kg/injection, schedule: Q01DX001 (ip), vehicle: carboxymethylcellulose (CMC)
# [14] = dose: 200.0 mg/kg/injection, schedule: Q01DX001 (ip), vehicle: carboxymethylcellulose (CMC)
# [15] = dose: 400.0 mg/kg/injection, schedule: Q01DX001 (ip), vehicle: carboxymethylcellulose (CMC)
# [16] = dose: 100.0 mg/kg/injection, schedule: Q01DX009 (ip), vehicle: saline with Tween-80
# [17] = dose: 200.0 mg/kg/injection, schedule: Q01DX009 (ip), vehicle: saline with Tween-80
# [18] = dose: 100.0 mg/kg/injection, schedule: Q04DX002 (ip), vehicle: saline with Tween-80
# [19] = dose: 200.0 mg/kg/injection, schedule: Q04DX002 (ip), vehicle: saline with Tween-80
# [20] = dose: 100.0 mg/kg/injection, schedule: Q01DX009 (ip), vehicle: saline
# [21] = dose: 200.0 mg/kg/injection, schedule: Q01DX009 (ip), vehicle: saline
# [22] = dose: 400.0 mg/kg/injection, schedule: Q01DX009 (ip), vehicle: saline
# [23] = dose: 100.0 mg/kg/injection, schedule: Q04DX003 (ip), vehicle: Klucel (hydroxypropylcellulose) (HPC)
# [24] = dose: 200.0 mg/kg/injection, schedule: Q04DX003 (ip), vehicle: Klucel (hydroxypropylcellulose) (HPC)
# [25] = dose: 400.0 mg/kg/injection, schedule: Q04DX003 (ip), vehicle: Klucel (hydroxypropylcellulose) (HPC)
structure (smiles),measurement,setting,value
O=C1C=CC(=O)N1CO,T/C,"dose: 2.5 mg/kg/injection, schedule: Q01DX009 (ip), vehicle: saline",91 % of control
same,T/C,"dose: 2.5 mg/kg/injection, schedule: Q04DX003 (ip), vehicle: saline",96 % of control
same,T/C,"dose: 5.0 mg/kg/injection, schedule: Q01DX009 (ip), vehicle: saline",94 % of control
same,T/C,"dose: 5.0 mg/kg/injection, schedule: Q04DX003 (ip), vehicle: saline",98 % of control
same,T/C,"dose: 10.0 mg/kg/injection, schedule: Q04DX003 (ip), vehicle: saline",91 % of control
Cc1cc(Br)c2c(C)ccc(C)c2n1,T/C,"dose: 2.0 mg/kg/injection, schedule: Q01DX001 (ip), vehicle: saline",98 % of control
same,T/C,"dose: 5.0 mg/kg/injection, schedule: Q01DX001 (ip), vehicle: saline",102 % of control
same,T/C,"dose: 10.0 mg/kg/injection, schedule: Q01DX001 (ip), vehicle: saline",96 % of control
N#Cc1nc2c(nc1C#N)-c1ccccc1C2=O,T/C,"dose: 6.25 mg/kg/injection, schedule: Q01DX009 (ip), vehicle: Klucel (hydroxypropylcellulose) (HPC)",99 % of control
same,T/C,"dose: 12.5 mg/kg/injection, schedule: Q01DX009 (ip), vehicle: Klucel (hydroxypropylcellulose) (HPC)",94 % of control
same,T/C,"dose: 12.5 mg/kg/injection, schedule: Q04DX003 (ip), vehicle: Klucel (hydroxypropylcellulose) (HPC)",104 % of control
same,T/C,"dose: 25.0 mg/kg/injection, schedule: Q04DX003 (ip), vehicle: Klucel (hydroxypropylcellulose) (HPC)",112 % of control
O=C(/C=C/c1ccccc1)CC(=O)c1ccccc1.O=C(/C=C/c1ccccc1)CC(=O)c1ccccc1.[Cu],T/C,[1],94 % of control
same,T/C,[2],91 % of control
same,T/C,[3],91 % of control
same,T/C,[4],97 % of control
Nc1ncnc(N)c1NC(=O)CCCCc1ccccc1,T/C,[5],100 % of control
same,T/C,[6],92 % of control
same,T/C,[7],100 % of control
Cc1ccc2c(c1)c(C)c(C)c(=O)n2C,T/C,[2],98 % of control
same,T/C,[3],93 % of control
same,T/C,[4],96 % of control
CC(=O)C1=CN(C(C)(C)C)COC1C (stereo not given),T/C,[8],104 % of control
same,T/C,[9],95 % of control
same,T/C,[10],110 % of control
N#CC1CNCCC1=N (stereo not given),T/C,[5],96 % of control
same,T/C,[6],96 % of control
same,T/C,[7],100 % of control
CC(C)(C)NC(c1ccccc1)C(NC(C)(C)C)c1ccccc1 (stereo not given),T/C,"dose: 50.0 mg/kg/injection, schedule: Q01DX001 (ip), vehicle: saline with Tween-80",91 % of control
same,T/C,[11],91 % of control
same,T/C,[12],94 % of control
O=C(O)/C=C/C(=O)Nc1cccc(Oc2ccc([N+](=O)[O-])cc2[N+](=O)[O-])c1,T/C,[5],106 % of control
same,T/C,[6],111 % of control
same,T/C,[7],104 % of control
CCN1CCC(S(=O)(=O)CCS(=O)(=O)C2CCN(CC)C2)C1 (stereo not given),T/C,[13],95 % of control
same,T/C,[14],94 % of control
same,T/C,[15],94 % of control
O=C(NC(=O)c1ccc(Cl)cc1)Nc1ccc(Cl)cc1C(F)(F)F,T/C,"dose: 50.0 mg/kg/injection, schedule: Q01DX009 (ip), vehicle: saline with Tween-80",98 % of control
same,T/C,[16],103 % of control
same,T/C,[17],98 % of control
NC(=O)CCC(C(=O)O)N1C(=O)C2C3CCC(C3)C2C1=O (stereo not given),T/C,[5],98 % of control
same,T/C,[6],95 % of control
same,T/C,[7],95 % of control
COC1CCC(/C(C#N)=C/c2ccco2)CC1 (stereo not given),T/C,[18],97 % of control and 89 % of control
same,T/C,[19],94 % of control and 99 % of control
same,T/C,"dose: 800.0 mg/kg/injection, schedule: Q04DX002 (ip), vehicle: saline with Tween-80",103 % of control
CCOC(=O)C(OCc1ccccc1)(C(=O)OCC)C(C)C,T/C,[20],97 % of control
same,T/C,[5],96 % of control
same,T/C,[21],101 % of control
same,T/C,[6],102 % of control
same,T/C,[22],106 % of control
same,T/C,[7],108 % of control
COc1ccc(NC(=O)Oc2ccccc2C(N)=O)c(Cl)c1,T/C,"dose: 100.0 mg/kg/injection, schedule: Q04DX002 (ip), vehicle: Klucel (hydroxypropylcellulose) (HPC)",96 % of control
same,T/C,"dose: 200.0 mg/kg/injection, schedule: Q04DX002 (ip), vehicle: Klucel (hydroxypropylcellulose) (HPC)",104 % of control
CC(=O)OCC1OC(Sc2ncc3cnccn23)C(OC(C)=O)C(OC(C)=O)C1OC(C)=O (stereo not given),T/C,"dose: 100.0 mg/kg/injection, schedule: Q01DX005 (ip), vehicle: saline",88 % of control
same,T/C,"dose: 200.0 mg/kg/injection, schedule: Q01DX005 (ip), vehicle: saline",93 % of control
OCC(F)(F)C(F)(F)C(F)(F)C(F)F,T/C,[1],94 % of control
same,T/C,[2],102 % of control
same,T/C,[9],101 % of control
same,T/C,[23],102 % of control
same,T/C,[3],96 % of control
same,T/C,[10],101 % of control
same,T/C,[24],102 % of control
same,T/C,[4],94 % of control
same,T/C,"dose: 400.0 mg/kg/injection, schedule: Q01DX009 (ip), vehicle: Klucel (hydroxypropylcellulose) (HPC)",103 % of control
same,T/C,[25],105 % of control
CCOC(=O)c1c(C)[nH]c(C)cc1=O,T/C,[11],95 % of control
same,T/C,[16],98 % of control
same,T/C,[12],95 % of control
same,T/C,[17],102 % of control
same,T/C,"dose: 400.0 mg/kg/injection, schedule: Q01DX001 (ip), vehicle: saline with Tween-80",90 % of control
same,T/C,"dose: 400.0 mg/kg/injection, schedule: Q01DX009 (ip), vehicle: saline with Tween-80",95 % of control
O=C1CCC(=O)N1O,T/C,"dose: 50.0 mg/kg/injection, schedule: Q01DX Z (ip), vehicle: saline",94 % of control
same,T/C,[20],93 % of control
same,T/C,"dose: 100.0 mg/kg/injection, schedule: Q01DX Z (ip), vehicle: saline",93 % of control
same,T/C,[21],90 % of control
same,T/C,"dose: 200.0 mg/kg/injection, schedule: Q01DX Z (ip), vehicle: saline",96 % of control
same,T/C,[22],92 % of control
same,T/C,"dose: 400.0 mg/kg/injection, schedule: Q01DX Z (ip), vehicle: saline",93 % of control
C=CCN(CC=C)P(=O)(N1CC1C)N1CC1C (stereo not given),T/C,"dose: 1.0 mg/kg/injection, schedule: Q01DX009 (ip), vehicle: saline",124 % of control
same,T/C,"dose: 3.0 mg/kg/injection, schedule: Q01DX009 (ip), vehicle: saline",172 % of control
Cc1ncc(C(=O)O)s1,T/C,[23],90 % of control
same,T/C,[24],95 % of control
same,T/C,[25],98 % of control
CC(C)=CCSc1ncnc2nc[nH]c12,T/C,"dose: 31.0 mg/kg/injection, schedule: Q01DX Z (ip), vehicle: other",91 % of control
same,T/C,"dose: 62.0 mg/kg/injection, schedule: Q01DX Z (ip), vehicle: other",117 % of control
same,T/C,"dose: 125.0 mg/kg/injection, schedule: Q01DX Z (ip), vehicle: other",103 % of control
same,T/C,"dose: 250.0 mg/kg/injection, schedule: Q01DX Z (ip), vehicle: other",109 % of control
Cc1ccc(/C(C#N)=C/C2CCC(N(C)C)CC2)cc1 (stereo not given),T/C,[18],87 % of control
same,T/C,[19],93 % of control
same,T/C,"dose: 400.0 mg/kg/injection, schedule: Q04DX002 (ip), vehicle: saline with Tween-80",87 % of control
CN1CCC(CC(=O)O)CC1,T/C,"dose: 50.0 mg/kg/injection, schedule: Q01DX009 (ip), vehicle: saline",92 % of control
same,T/C,[20],92 % of control
same,T/C,[21],111 % of control
COc1ccc(C2=NNc3n[nH]c(=S)n3N2)cc1OC,T/C,[8],96 % of control
same,T/C,[9],96 % of control
same,T/C,[10],112 % of control
COc1ccc2nc(C)c(COC(C)=O)cc2c1,T/C,[5],100 % of control
same,T/C,[6],98 % of control
same,T/C,[7],105 % of control
COCC/C(COC)=N\N=C(/CCOC)COC,T/C,[1],97 % of control
same,T/C,[2],103 % of control
same,T/C,[9],103 % of control
same,T/C,[3],106 % of control
same,T/C,[10],111 % of control
same,T/C,[4],109 % of control
CCOc1ccc(Br)cc1C1N(Cc2ccc(OC)cc2)CCCN1Cc1ccc(OC)cc1,T/C,[13],96 % of control
same,T/C,[14],93 % of control
same,T/C,[15],91 % of control
c1ccc2c(c1)C[n+]1ccccc1-2,T/C,"dose: 75.0 mg/kg/injection, schedule: Q01DX001 (ip), vehicle: other",102 % of control
